The source of these data is patent US5698691A, “Condensed cyclic compounds and their use” (Takeda Chemical Industries, Ltd., priority 1993, dated 1997).

The term IC50 denotes the concentration that gives 50% inhibition.

The target in assay [1] is T1, squalene synthetase (Rattus norvegicus, UniProt Q02769).
T1 construct: from tissue; host or cells: rat liver microsome fraction (SD male rat, 6 weeks old)
T1 sequence (Q02769 1-416): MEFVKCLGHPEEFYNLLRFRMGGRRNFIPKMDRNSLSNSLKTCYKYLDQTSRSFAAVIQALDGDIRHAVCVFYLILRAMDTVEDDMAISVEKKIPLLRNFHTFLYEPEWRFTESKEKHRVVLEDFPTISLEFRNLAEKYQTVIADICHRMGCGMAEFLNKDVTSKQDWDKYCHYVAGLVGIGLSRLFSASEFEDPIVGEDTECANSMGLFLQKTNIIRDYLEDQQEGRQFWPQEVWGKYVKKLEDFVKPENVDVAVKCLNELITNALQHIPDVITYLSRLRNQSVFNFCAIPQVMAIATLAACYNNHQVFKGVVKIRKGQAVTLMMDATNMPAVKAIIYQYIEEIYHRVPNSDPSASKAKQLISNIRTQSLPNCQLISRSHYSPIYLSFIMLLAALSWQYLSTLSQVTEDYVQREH
The assay can be described thus: Squalene synthetase inhibitory activity, rat-derived enzyme (liver microsome fraction). Type of assay: biochemical. To be noted: SD rat liver microsome fraction; 5 uM [1-3H] farnesyl pyrophosphate, 37° C., 45 minutes. As for the experimental part: (§1) Assay Method of Squalene Synthetase Inhibitory Activity
(§2) The squalene synthetase inhibitory activity was assayed as follows with the enzyme solutions described in the subsequent Experimental Examples 1 and 2.
(§3) More specifically, an enzyme solution (protein content 0.8 ug) prepared in Experimental Example 1 or 2 was added to a solution (total volume 50 μl)) containing 5 uM [1-^3 H] farnesyl pyrophosphate (specific activity 25 uCi/mole), 1 mM NADPH, 5 mM MgCl2, 6 mM glutathione, a 100 mM buffer solution of potassium phosphate (pH 7.4) and a test drug (used as an aqueous solution or a DMSO solution), then the reaction was allowed to proceed at 37° C. for 45 minutes. To the reaction mixture was added 150 μl of a mixture of chloroform and methanol (1:2) to suspend the reaction, followed by adding 50 μl of chloroform and 50 μl of a 3N aqueous solution of sodium hydroxide. 50 μl of the chloroform layer (lower layer) containing the reaction mixture having squalene as the principal component and 3 ml of toluene-based liquid scintillator were mixed, and its radioactivity was determined by means of a liquid scintillation counter.
(§4) The squalene synthetase inhibitory activity was expressed in terms of the concentration inhibiting by 50% the radioactivity taken into the chloroform layer (IC50, molar concentration (M)).
An SD male rat (6 week old) was killed by bleeding, and its liver was excised. About 10 g of the liver was washed with a saline solution cooled with ice, which was then homogenized in 15 ml of an ice-cooled buffer solution [100 mM potassium phosphate (pH 7.4), 15 mM nicotinamide, 2 mM MgCl2 ], followed by centrifugation for 20 minutes (4° C.) with 10000×g. The supernatant layer was separated and subjected to further centrifugation for 90 minutes (4° C.) at 105000×g. The sediment was then suspended in an ice-cooled 100 mM phosphate buffer solution (pH 7.4), which was again subjected to centrifugation for 90 minutes (4° C.) at 105000×g. The sediment thus obtained (microsome fraction) was suspended in an ice-cooled 100 mM potassium phosphate buffer (pH 7.4) (about 40 mg/ml protein concentration, determined with BCA protein assay kit of Pias Co., Ltd.). This suspension was used as the enzyme solution.

Assay [2] has as its target T2, squalene synthetase (Homo sapiens, UniProt P37268).
T2 construct: endogenous in cells; host or cells: HepG2 (human hepatic carcinoma) cells, microsome fraction
T2 sequence (P37268 1-417): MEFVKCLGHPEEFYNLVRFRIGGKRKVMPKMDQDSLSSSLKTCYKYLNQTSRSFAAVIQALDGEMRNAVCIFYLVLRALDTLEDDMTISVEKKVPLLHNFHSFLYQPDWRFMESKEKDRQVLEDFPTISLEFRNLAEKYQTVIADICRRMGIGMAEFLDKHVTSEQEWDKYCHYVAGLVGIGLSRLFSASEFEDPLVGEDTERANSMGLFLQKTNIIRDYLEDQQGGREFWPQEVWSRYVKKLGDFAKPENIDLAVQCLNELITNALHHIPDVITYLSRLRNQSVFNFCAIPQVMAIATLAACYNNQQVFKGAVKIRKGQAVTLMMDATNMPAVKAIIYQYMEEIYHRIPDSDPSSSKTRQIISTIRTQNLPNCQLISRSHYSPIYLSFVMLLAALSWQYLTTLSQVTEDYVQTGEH
As to the kind of experiment: Squalene synthetase inhibitory activity, human-derived enzyme (HepG2 microsome fraction). Type of assay: biochemical. To be noted: 5 uM [1-3H] farnesyl pyrophosphate, 37° C., 45 minutes. The protocol: as §1, §2, §3, §4
Human hepatic carcinoma cells HepG2 (about 1×10^9 cells) obtained by incubation in a Dulbecco-modified Eagle's medium (37° C. in the presence of 5% CO2) were suspended in 10 ml of an ice-cooled buffer solution [100 mM potassium phosphate buffer (pH 7.4), 30 mM nicotinamide and 2.5 mM MgCl2 ]. The cells were crashed by means of ultrasonication (for 30 seconds, twice). From the sonicate thus obtained, the microsome fraction was obtained by the same procedure as in Experiment Example 1, which was suspended in an ice-cooled 100 mM potassium phosphate buffer (pH 7.4) (about 4 mg/ml protein concentration). This suspension was used as the enzyme solution. The results are shown in [Table 4].

Consider `COc1ccc([C@H]2S[C@H](CC(=O)O)C(=O)N(CC(C)(C)C)c3ccc(Cl)cc32)c(OC)c1` [Example 51, (3R,5S)-7-Chloro-5-(2,4-dimethoxyphenyl)-1-neopentyl-2-oxo-1,2,3,5-tetrahydro-4,1-benzothiazepine-3-acetic acid], for which the half-inhibitory concentration (IC50) was found to be 21 nM on squalene synthetase [1] and 18 nM against squalene synthetase [2].

Turning to `CC(C)CN1C(=O)C(CC(=O)O)CC(c2ccccc2Cl)c2cc(Cl)ccc21` (stereo not shown) [Example 26, 7-Chloro-5-(2-chlorophenyl)-1-isobutyl-2-oxo-2,3,4,5-tetrahydro-1H-[1]-benzazepine-3-acetic acid], the values for the IC50 against squalene synthetase [1] and against squalene synthetase [2] were 390 nM and 120 nM, respectively.

Turning to `COc1ccccc1C1SC(CC(=O)O)C(=O)N(CC(C)(C)C)c2ccc(Cl)cc21` (stereo not drawn) [Example 10-8, 3,5-trans-7-Chloro-5-(2-methoxyphenyl)-1-neopentyl-2-oxo-1,2,3,5-tetrahydro-4,1-benzothiazepine-3-acetic acid], the IC50 against squalene synthetase [1] was 23 nM; against squalene synthetase [2] it was 13 nM.

As to `COc1cccc([C@H]2S[C@H](Cc3nnn[nH]3)C(=O)N(CC(C)(C)C)c3ccc(Cl)cc32)c1OC` [Example 59, (3R,5S)-7-Chloro-5-(2,3-dimethoxyphenyl)-1-neopentyl-3-(tetrazol-5-yl)methyl-1,2,3,5-tetrahydro-4,1-benzothaizepin-2-one], the results for the 50% inhibitory concentration (IC50) against squalene synthetase [1] and at squalene synthetase [2] were 16 nM and 10 nM, respectively.

For the molecule `CC(C)CN1C(=O)[C@@H](CC(=O)O)N[C@H](c2ccccc2Cl)c2cc(Cl)ccc21` [Example 14, (3R,5S)-1-Isobutyl-7-chloro-5-(2-chlorophenyl)-2,3,4,5-tetrahydro-2-oxo-1H-1,4-benzodiazepine-3-acetic acid], the IC50 against squalene synthetase [1] amounted to 430 nM; against squalene synthetase [2] it was 160 nM.
